This note sets out measurements from ChEMBL document CHEMBL4418299, “Compounds useful as csf1 modulators” (2016).

For the assay, the target named is Macrophage colony-stimulating factor 1 receptor (Homo sapiens, UniProt P07333). The experiment in a line: Displacement of kinase tracer 236 from recombinant human His-tagged CSF1R cytoplasmic domain (538 to 910 residues) expressed in baculovirus-infected insect cells measured after 5 hrs by TR-FRET based LanthaScreen assay. On the technique in general: Time-resolved FRET reads energy transfer from a long-lived donor to a nearby acceptor.
Macrophage colony-stimulating factor 1 receptor, sequence (P07333 whole entry, the tested form may be a part): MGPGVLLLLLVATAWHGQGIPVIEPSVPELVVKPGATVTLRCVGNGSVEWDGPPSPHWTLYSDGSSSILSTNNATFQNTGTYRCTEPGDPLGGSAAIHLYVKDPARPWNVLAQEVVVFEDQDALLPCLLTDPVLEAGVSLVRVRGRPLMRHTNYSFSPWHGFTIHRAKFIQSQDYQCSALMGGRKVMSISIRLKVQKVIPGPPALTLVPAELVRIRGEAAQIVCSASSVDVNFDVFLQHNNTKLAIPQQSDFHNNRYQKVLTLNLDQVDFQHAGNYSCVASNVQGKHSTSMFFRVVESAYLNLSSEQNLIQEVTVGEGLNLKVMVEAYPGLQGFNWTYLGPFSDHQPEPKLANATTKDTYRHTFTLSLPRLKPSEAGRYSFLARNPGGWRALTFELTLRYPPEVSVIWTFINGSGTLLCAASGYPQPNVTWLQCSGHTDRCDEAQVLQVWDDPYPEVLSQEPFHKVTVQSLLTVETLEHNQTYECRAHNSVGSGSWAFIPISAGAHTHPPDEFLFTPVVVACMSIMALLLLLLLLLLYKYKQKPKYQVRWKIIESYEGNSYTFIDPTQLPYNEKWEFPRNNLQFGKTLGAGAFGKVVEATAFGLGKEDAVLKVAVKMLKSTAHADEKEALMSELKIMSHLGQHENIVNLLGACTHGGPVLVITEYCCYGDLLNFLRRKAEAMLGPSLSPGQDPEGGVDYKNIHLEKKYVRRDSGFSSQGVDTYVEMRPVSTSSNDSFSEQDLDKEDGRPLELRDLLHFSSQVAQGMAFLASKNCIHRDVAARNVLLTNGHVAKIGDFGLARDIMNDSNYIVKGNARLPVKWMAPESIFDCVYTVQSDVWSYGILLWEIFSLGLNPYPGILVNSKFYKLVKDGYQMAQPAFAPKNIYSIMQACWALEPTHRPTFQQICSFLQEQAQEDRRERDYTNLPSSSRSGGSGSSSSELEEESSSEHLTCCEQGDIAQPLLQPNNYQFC
For `COc1cc(-n2c3c(c4ncnc(N)c42)CCC3)ccc1NC(=O)Cn1cnc(C(F)(F)F)c1`, the IC50 (in general, the concentration that inhibits the measured activity by half) lay in the range of 10 to 200 nM.

Turning to `COc1cc(-n2c3c(c4ncnc(N)c42)CCC3)ccc1NC(=O)Cc1cc(C(F)F)on1`, the IC50 is under 10 nM. In the case of `COc1cc(-n2c3c(c4ncnc(N)c42)CCC3)ccc1NC(=O)Cc1nc(C(C)C)no1`, the IC50 is under 10 nM. For `COc1cc(-n2c3c(c4ncnc(N)c42)COC3)ccc1NC(=O)Cc1ccc(C)c(F)c1`, the IC50 was under 10 nM. For the molecule `CNC(=O)c1ccc(CC(=O)Nc2ccc(-n3c4c(c5ncnc(N)c53)CCC4)cc2OC)cc1`, the IC50 is over 200 nM. Regarding `Nc1ncnc2c3c(n(-c4ccc(NC(=O)Cc5cc(C(F)(F)F)no5)cc4)c12)CCC3`, the IC50 was under 10 nM. `COc1cc(-n2c3c(c4ncnc(N)c42)COC3)ccc1NC(=O)Cn1cc(C(C)(C)C)cn1`: the IC50 is 10 to 200 nM. With `COc1cc(-n2c3c(c4ncnc(N)c42)CCC3)ccc1NC(=O)Cn1cc(C(F)(F)F)cn1`, the IC50 is under 10 nM. Regarding `COc1cc(-n2c3c(c4ncnc(N)c42)COC3)ccc1NC(=O)Cn1cc(C(F)(F)F)cn1`, the IC50 lay in the range of 10 to 200 nM. As for `COc1cc(-n2c3c(c4ncnc(N)c42)COC3)ccc1NC(=O)Cc1nccc(C(F)(F)F)n1`, the figure is over 200 nM. On to `CC(C)(C)c1ccn(CC(=O)Nc2ccc(-n3c4c(c5ncnc(N)c53)COC4)cc2)n1`, for which the IC50 fell in the range of 10 to 200 nM.

In the case of `COc1cc(-n2c3c(c4ncnc(N)c42)CCC3)ccc1NC(=O)Cc1nccc(C(F)(F)F)n1`, the IC50 was in the range of 10 to 200 nM. As for `Nc1ncnc2c3c(n(-c4ccc(NC(=O)Cc5cnn(C(F)F)c5)cc4)c12)CCC3`, the figure is 10 to 200 nM; as for `COc1cc(-n2c3c(c4ncnc(N)c42)CCC3)ccc1NC(=O)Cc1ccnc(C(F)(F)F)n1`, 10 to 200 nM.

For `COc1cc(-n2c3c(c4ncnc(N)c42)COC3)ccc1NC(=O)CN1C(=O)COc2ccccc21`, the IC50 is over 200 nM. As to `Nc1ncnc2c3c(n(-c4ccc(NC(=O)Cn5ccc(C(F)(F)F)n5)cc4)c12)COC3`, the IC50 lay within 10 to 200 nM. As for `Nc1ncnc2c3c(n(-c4ccc(NC(=O)Cn5ccc(C(F)(F)F)n5)cc4)c12)CCC3`, the figure is under 10 nM. As for `COc1cc(-n2c3c(c4ncnc(N)c42)CCC3)ccc1NC(=O)Cc1ccc(C(=O)N(C)C)cc1`, the IC50 fell in the range of 10 to 200 nM. Regarding `COc1cc(-n2c3c(c4ncnc(N)c42)CCC3)ccc1NC(=O)Cc1nnccc1C(F)(F)F`, the IC50 was over 200 nM. As for `COc1cc(-n2c3c(c4ncnc(N)c42)CCC3)ccc1NC(=O)Cc1coc(C(C)C)n1`, the figure is under 10 nM.

In the case of `COc1cc(-n2c3c(c4ncnc(N)c42)COC3)ccc1NC(=O)Cn1nc(C)cc1C(F)(F)F`, the half-maximal inhibitory concentration (IC50) is over 200 nM.

Regarding `COc1cc(CC(=O)Nc2ccc(-n3c4c(c5ncnc(N)c53)CCC4)cc2OC)cc(OC)c1`, the IC50 was under 10 nM. As to `COc1cc(-n2c3c(c4ncnc(N)c42)COC3)ccc1NC(=O)Cn1cnc(C(F)(F)F)c1`, the IC50 lay within 10 to 200 nM.

For `COc1cc(-n2c3c(c4ncnc(N)c42)CCC3)ccc1NC(=O)Cc1cc(C(F)(F)F)on1`, the IC50 was under 10 nM. Regarding `COc1cc(-n2c3c(c4ncnc(N)c42)CCC3)ccc1NC(=O)Cc1c(C)noc1C`, the IC50 is over 200 nM. Consider `COc1cc(-n2c3c(c4ncnc(N)c42)CCC3)ccc1NC(=O)CN1C(=O)COc2ccccc21`, for which the IC50 was in the range of 10 to 200 nM. `COc1cc(-n2c3c(c4ncnc(N)c42)CCC3)ccc1NC(=O)Cc1cc(C(F)(F)F)no1`: the IC50 is under 10 nM.

For `COc1cc(-n2c3c(c4ncnc(N)c42)CCC3)ccc1NC(=O)Cn1nc(C)cc1C`, the IC50 was in the range of 10 to 200 nM. As to `Cn1ncc(CC(=O)Nc2ccc(-n3c4c(c5ncnc(N)c53)CCC4)cc2)c1C(F)(F)F`, the IC50 is under 10 nM. With `COc1cc(-n2c3c(c4ncnc(N)c42)COC3)ccc1NC(=O)Cn1ccc(C(C)(C)C)n1`, the IC50 lay within 10 to 200 nM. For the molecule `COc1cc(-n2c3c(c4ncnc(N)c42)CCC3)ccc1NC(=O)Cc1cc(C(F)(F)F)cnn1`, the IC50 is 10 to 200 nM.

Regarding `Nc1ncnc2c3c(n(-c4ccc(NC(=O)Cn5cnc(C(F)(F)F)c5)cc4)c12)COC3`, the 50% inhibitory concentration (IC50) was under 10 nM. For the molecule `COc1cc(-n2c3c(c4ncnc(N)c42)CCC3)ccc1CC(=O)Nc1cc(C)ccc1F`, the IC50 is under 10 nM. With `COc1cc(-n2c3c(c4ncnc(N)c42)COC3)ccc1NC(=O)Cc1ccc(C)cc1F`, the IC50 was under 10 nM.

For the molecule `COc1cc(-n2c3c(c4ncnc(N)c42)CCC3)ccc1NC(=O)Cc1cnn(C)c1C(F)(F)F`, the IC50 was under 10 nM. In the case of `COc1cc(-n2c3c(c4ncnc(N)c42)COC3)ccc1NC(=O)Cn1ccc(C(C)C)n1`, the IC50 was under 10 nM. As to `COc1cc(-n2c3c(c4ncnc(N)c42)CCC3)ccc1NC(=O)Cc1ccc(C(C)(C)C)cc1`, the IC50 lay in the range of 10 to 200 nM. As to `CC(C)c1ccn(CC(=O)Nc2ccc(-n3c4c(c5ncnc(N)c53)CCC4)cc2)n1`, the IC50 was under 10 nM. On to `COc1cc(-n2c3c(c4ncnc(N)c42)CCC3)ccc1NC(=O)CN1CCCc2cc(F)ccc21`, for which the IC50 was 10 to 200 nM.

Take `Nc1ncnc2c3c(n(-c4ccc(NC(=O)Cc5ccccc5)c(C(F)(F)F)c4)c12)CCC3`: the IC50 was over 200 nM. As for `COc1ccc(CC(=O)Nc2ccc(-n3c4c(c5ncnc(N)c53)COC4)cc2OC)c(F)c1`, the figure is 10 to 200 nM; as for `COc1cc(-n2c3c(c4ncnc(N)c42)COC3)ccc1NC(=O)CN1CCOc2ccccc21`, over 200 nM. On to `COc1cc(-n2c3c(c4ncnc(N)c42)CCC3)ccc1CC(=O)Nc1ccc(C(F)(F)F)cn1`, for which the IC50 is under 10 nM. Consider `Nc1ncnc2c3c(n(-c4ccc(NC(=O)Cn5cc(C(F)(F)F)cn5)cc4)c12)CCC3`, for which the concentration for half-maximal inhibition (IC50) was under 10 nM. Consider `COc1cc(-n2c3c(c4ncnc(N)c42)COC3)ccc1NC(=O)Cn1ncc2ccccc21`, for which the IC50 is 10 to 200 nM. As to `COc1cc(-n2c3c(c4ncnc(N)c42)COC3)ccc1NC(=O)Cc1ccnc(C(F)(F)F)n1`, the concentration for half-maximal inhibition (IC50) was over 200 nM. For the molecule `COc1cc(-n2c3c(c4ncnc(N)c42)COC3)ccc1NC(=O)Cc1cccc(OC)c1C`, the IC50 is under 10 nM. For the molecule `Nc1ncnc2c3c(n(-c4ccc(NC(=O)Cn5cnc(C(F)(F)F)c5)cc4)c12)CCC3`, the IC50 is under 10 nM.

`COc1cc(-n2c3c(c4ncnc(N)c42)CCC3)ccc1NC(=O)Cc1cc(C(F)(F)F)nn1C`: the IC50 lay in the range of 10 to 200 nM. Consider `COc1cc(-n2c3c(c4ncnc(N)c42)COC3)ccc1NC(=O)Cc1cnn(C)c1C(F)(F)F`, for which the 50% inhibitory concentration (IC50) was over 200 nM. As for `COc1cc(-n2c3c(c4ncnc(N)c42)CCC3)ccc1CC(=O)Nc1ccc(C(F)(F)F)nc1`, the IC50 is under 10 nM. In the case of `CC(C)(C)c1cnn(CC(=O)Nc2ccc(-n3c4c(c5ncnc(N)c53)COC4)cc2)c1` it was under 10 nM.

Regarding `COc1cc(-n2c3c(c4ncnc(N)c42)CCC3)ccc1NC(=O)Cc1cnn(C)c1`, the IC50 is 10 to 200 nM. With `Nc1ncnc2c3c(n(-c4ccc(NC(=O)Cc5nnc(C(F)(F)F)o5)cc4)c12)CCC3`, the IC50 is over 200 nM.

Turning to `COc1cc(-n2c3c(c4ncnc(N)c42)CCC3)ccc1NC(=O)Cn1cc(C(F)(F)F)nc1C`, the IC50 was 10 to 200 nM. In the case of `Nc1ncnc2c3c(n(-c4ccc(NC(=O)Cn5ccc(C6CC6)n5)cc4)c12)CCC3` it was under 10 nM; in that of `COc1cc(-n2c3c(c4ncnc(N)c42)CCC3)ccc1NC(=O)Cn1ccc(C2CC2)n1`, under 10 nM; in that of `Nc1ncnc2c3c(n(-c4ccc(NC(=O)Cc5cc(C(F)F)on5)cc4)c12)CCC3`, 10 to 200 nM. As for `COc1cc(-n2c3c(c4ncnc(N)c42)COC3)ccc1NC(=O)Cc1csc(C(C)C)n1`, the IC50 fell in the range of 10 to 200 nM. As to `COc1cc(-n2c3c(c4ncnc(N)c42)CCC3)ccc1NC(=O)Cc1nnn(C(C)(C)C)n1`, the IC50 was under 10 nM. As for `COc1cc(-n2c3c(c4ncnc(N)c42)CCC3)ccc1NC(=O)Cc1csc(C(C)C)n1`, the figure is under 10 nM; as for `COc1cc(-n2c3c(c4ncnc(N)c42)CCC3)ccc1NC(=O)Cn1nc(C)cc1C(F)(F)F`, 10 to 200 nM; as for `COc1cc(-n2c3c(c4ncnc(N)c42)CCC3)ccc1NC(=O)Cc1cnn(C(F)F)c1`, under 10 nM.

Turning to `Cn1nc(C(F)(F)F)cc1CC(=O)Nc1ccc(-n2c3c(c4ncnc(N)c42)CCC3)cc1`, the half-inhibitory concentration (IC50) was under 10 nM.

Turning to `COc1cc(-n2c3c(c4ncnc(N)c42)CCC3)ccc1NC(=O)Cn1ccc(C(F)(F)F)n1`, the IC50 was under 10 nM. Take `Nc1ncnc2c3c(n(-c4ccc(NC(=O)Cn5cc(C(F)(F)F)cn5)cc4)c12)COC3`: the IC50 is 10 to 200 nM. Regarding `COc1cc(-n2c3c(c4ncnc(N)c42)CCC3)ccc1NC(=O)Cc1ccn(C)n1`, the IC50 is over 200 nM. As for `COc1cc(-n2c3c(c4ncnc(N)c42)CCC3)ccc1NC(=O)Cn1ccc(C(C)(C)C)n1`, the 50% inhibitory concentration (IC50) is under 10 nM. For `CC(C)c1noc(CC(=O)Nc2ccc(-n3c4c(c5ncnc(N)c53)CCC4)cc2)n1`, the IC50 was in the range of 10 to 200 nM. For `COc1cc(CC(=O)Nc2ccc(-n3c4c(c5ncnc(N)c53)COC4)cc2OC)cc(OC)c1`, the IC50 was in the range of 10 to 200 nM. Take `CC(C)(C)c1cnn(CC(=O)Nc2ccc(-n3c4c(c5ncnc(N)c53)CCC4)cc2)c1`: the IC50 was under 10 nM. Turning to `COc1cc(-n2c3c(c4ncnc(N)c42)COC3)ccc1NC(=O)Cn1ccc(C(F)(F)F)n1`, the IC50 is 10 to 200 nM. In the case of `COc1cc(-n2c3c(c4ncnc(N)c42)CCC3)ccc1NC(=O)CN1CCOc2ccccc21` it was 10 to 200 nM; in that of `COc1cc(-n2c3c(c4ncnc(N)c42)CCC3)ccc1NC(=O)Cc1ccn(C(F)F)n1`, under 10 nM; in that of `Nc1ncnc2c3c(n(-c4ccc(NC(=O)Cc5cc(C(F)(F)F)on5)cc4)c12)CCC3`, under 10 nM. With `COc1cc(-n2c3c(c4ncnc(N)c42)COC3)ccc1NC(=O)Cc1cc(C(F)(F)F)on1`, the IC50 lay in the range of 10 to 200 nM. For the molecule `Nc1ncnc2c3c(n(-c4ccc(NC(=O)Cc5ccccc5)c(OC(F)(F)F)c4)c12)CCC3`, the IC50 was over 200 nM. As for `Nc1ncnc2c3c(n(-c4ccc(NC(=O)Cc5ccccc5)c(Cl)c4)c12)CCC3`, the IC50 was over 200 nM.

In the case of `COc1cc(-n2c3c(c4ncnc(N)c42)CCC3)ccc1NC(=O)Cc1ccc2c(c1)CN(C)C2=O`, the IC50 is over 200 nM. For `COc1cc(-n2c3c(c4ncnc(N)c42)CCC3)ccc1NC(=O)Cn1cc(C)cn1`, the IC50 is under 10 nM. With `COc1cc(-n2c3c(c4ncnc(N)c42)COC3)ccc1NC(=O)Cc1csc(C(C)(C)C)n1`, the 50% inhibitory concentration (IC50) was 10 to 200 nM.
